From US20160122340A1, “HISTONE DEACETYLASE INHIBITORS BASED ON DERIVATIVES OF TRICYCLIC POLYHYDROACRIDINE AND ANALOGS POSSESSING FUSED SATURATED FIVE-AND-SEVEN-MEMBERED RINGS” (QUIMATRYX, S.L., priority 2013, published 2016)

Tests used:
Format in all cases: biochemical
Human HDAC6 = target: T1, Human HDAC6 (Homo sapiens, UniProt Q9UBN7); assay: In vitro HDAC6 inhibition, fluorogenic peptide substrate; details: read-out: IC50 (μM) HDAC-6
T1 construct: Full length with N-terminal GST tag, MW=159 kDa; GST (N); purchased BioMol SE-508; host or cells: baculovirus / Sf9 cells
T1 sequence (Q9UBN7 1-1215): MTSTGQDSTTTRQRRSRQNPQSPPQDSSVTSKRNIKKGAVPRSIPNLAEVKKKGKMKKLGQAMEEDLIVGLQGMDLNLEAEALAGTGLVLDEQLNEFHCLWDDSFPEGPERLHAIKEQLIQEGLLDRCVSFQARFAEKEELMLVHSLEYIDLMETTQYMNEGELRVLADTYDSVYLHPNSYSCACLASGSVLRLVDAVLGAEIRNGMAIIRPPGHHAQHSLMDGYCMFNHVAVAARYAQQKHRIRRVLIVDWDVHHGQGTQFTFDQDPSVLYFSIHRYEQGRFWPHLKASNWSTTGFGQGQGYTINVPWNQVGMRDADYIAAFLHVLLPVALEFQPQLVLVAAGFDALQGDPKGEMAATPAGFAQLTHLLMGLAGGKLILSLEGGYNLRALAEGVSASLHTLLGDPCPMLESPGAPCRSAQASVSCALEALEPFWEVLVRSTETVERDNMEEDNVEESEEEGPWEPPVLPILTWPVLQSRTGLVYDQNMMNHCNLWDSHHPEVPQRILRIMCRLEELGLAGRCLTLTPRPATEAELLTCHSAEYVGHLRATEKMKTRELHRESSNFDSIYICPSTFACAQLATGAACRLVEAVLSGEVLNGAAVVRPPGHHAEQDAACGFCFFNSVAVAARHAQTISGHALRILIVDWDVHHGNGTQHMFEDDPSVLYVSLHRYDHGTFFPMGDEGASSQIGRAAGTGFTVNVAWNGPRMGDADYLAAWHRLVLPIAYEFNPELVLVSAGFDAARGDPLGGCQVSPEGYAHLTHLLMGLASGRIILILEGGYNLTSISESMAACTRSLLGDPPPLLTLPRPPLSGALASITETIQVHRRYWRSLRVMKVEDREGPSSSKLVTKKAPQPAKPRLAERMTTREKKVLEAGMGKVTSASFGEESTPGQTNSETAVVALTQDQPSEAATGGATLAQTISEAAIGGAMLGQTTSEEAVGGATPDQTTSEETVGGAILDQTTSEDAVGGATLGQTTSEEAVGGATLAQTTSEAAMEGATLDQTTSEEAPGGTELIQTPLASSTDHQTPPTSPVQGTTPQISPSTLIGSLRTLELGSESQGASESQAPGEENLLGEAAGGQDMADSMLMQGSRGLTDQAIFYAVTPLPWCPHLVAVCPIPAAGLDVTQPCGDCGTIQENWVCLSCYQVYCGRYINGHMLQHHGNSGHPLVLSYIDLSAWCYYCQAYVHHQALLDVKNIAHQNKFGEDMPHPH
Experimental: (§1) In Vitro Inhibitory Activity of Histone Deacetylase: Human Isoforms HDAC1, 2, 3, 4, 5, 6, 7, 8, 9, 10 and 11 and HeLa Cell Line Nuclear Extract (IC50 Data)
(§2) All HDAC assays were performed using acetylated AMC-labeled peptide substrate: • Substrate for isoforms HDAC1, 2, 3, 6, 10, 11 and HeLa nuclear extract assays: Acetylated fluorogenic peptide from p53 residues 379-382 (RHKKAc). • Substrate for isoforms HDAC 4, 5, 7, 9: Fluorogenic Boc-L-Lys(ε-trifluoroacetyl)-AMC. • Substrate for HDAC8 assays: Acetylated fluorogenic peptide from p53 residues 379-382 (RHKAcKAc).
(§3) 50 μM of substrate peptide (see ‘substrate peptides’ section above) and an optimal concentration of the corresponding enzyme (see ‘enzymes’ section above) in the assay buffer and 1% final concentration of DMSO were incubated in the presence of gradient concentrations of inhibitors (10-dose IC50 mode with 3-fold serial dilution) at 30° C. for 2 h. The reactions were carried out in a 96-well microplate for fluorometry in a 50 μl reaction volume. After the deacetylation reaction, Fluor-de-Lys-Developer (BioMol Cat. # KI-105) was added to each well to digest the deacetylated substrate, thus producing the fluorescent signal. The reaction was allowed to develop for 45 minutes at 30° C. with 5% CO2; then the fluorescent signal was measured with an excitation wavelength at 360 nm and an emission wavelength at 460 nm in a microplate-reading fluorometer (GeminiXS; Molecular Devices, Sunnyvale, Calif.). A curve of Deacetylated Standard (Biomol, Cat. # KI-142; made from 100 μM with 1:2 dilution and 10-doses, 6 μl) allowed the conversion of fluorescent signal into micromoles of deacetylated product. All experiments were performed in triplicate. IC50 was calculated by fitting the experimental data to a dose-response curve. DMSO was used as negative control; Trichostatin A (Biomol Cat. # GR-309) was used as positive control inhibitor.

Human HDAC7 = target: T2, Human HDAC7 (Homo sapiens, UniProt Q8WUI4); assay: In vitro HDAC7 inhibition, fluorogenic substrate; details: read-out: IC50 (μM) HDAC-7
T2 construct: Amino acids 518-end with N-terminal GST tag, MW=78 kDa; GST (N); purchased BioMol, Hamburg, Germany; host or cells: baculovirus expression system
T2 sequence (Q8WUI4 518-952 limits assumed): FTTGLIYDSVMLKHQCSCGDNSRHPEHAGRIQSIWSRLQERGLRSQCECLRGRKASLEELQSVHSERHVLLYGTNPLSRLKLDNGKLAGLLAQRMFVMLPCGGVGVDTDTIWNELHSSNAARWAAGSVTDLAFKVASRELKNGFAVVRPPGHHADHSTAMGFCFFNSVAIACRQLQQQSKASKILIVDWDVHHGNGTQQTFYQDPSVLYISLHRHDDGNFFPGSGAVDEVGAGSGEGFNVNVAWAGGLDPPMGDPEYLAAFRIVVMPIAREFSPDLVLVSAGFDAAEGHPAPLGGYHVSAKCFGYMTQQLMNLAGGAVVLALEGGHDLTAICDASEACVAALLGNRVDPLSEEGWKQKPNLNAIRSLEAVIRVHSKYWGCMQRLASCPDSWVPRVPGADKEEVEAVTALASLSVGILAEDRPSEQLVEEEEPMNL
Experimental: as §1, §2, §3

Human HDAC11 = target: T3, Human HDAC11 (Homo sapiens, UniProt Q96DB2); assay: In vitro HDAC11 inhibition, fluorogenic peptide substrate; details: read-out: IC50 (μM) HDAC-11
T3 construct: GST (N); purchased BioMol SE-560; host or cells: baculovirus expression system
T3 sequence (Q96DB2 1-347): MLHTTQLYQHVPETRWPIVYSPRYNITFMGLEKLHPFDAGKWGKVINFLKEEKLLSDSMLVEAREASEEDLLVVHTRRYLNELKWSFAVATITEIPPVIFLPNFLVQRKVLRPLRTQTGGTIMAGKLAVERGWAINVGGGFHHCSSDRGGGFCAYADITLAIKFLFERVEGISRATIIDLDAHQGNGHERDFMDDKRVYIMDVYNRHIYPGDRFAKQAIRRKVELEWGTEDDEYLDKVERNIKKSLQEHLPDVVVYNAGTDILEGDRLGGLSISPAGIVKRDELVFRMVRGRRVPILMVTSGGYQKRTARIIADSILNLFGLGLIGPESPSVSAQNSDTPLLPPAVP
Experimental: as §1, §2, §3

IC50 (Human HDAC6) [µM] | IC50 (Human HDAC7) [µM] | IC50 (Human HDAC11) [µM] | Compound
0.036 | 4.55 | 2.21 | O=C(CCCCCNc1c2c(nc3ccccc13)CCCC2)NO [Example 1, N-hydroxy-6-[(1,2,3,4-tetrahydroacridin-9-yl)amino]hexanamide]
0.01 | 0.77 | 0.59 | O=C(CCCCCCNc1c2c(nc3ccccc13)CCCC2)NO [Example 2, N-hydroxy-7-[(1,2,3,4-tetrahydroacridin-9-yl)amino]heptanamide]
– | > 5 | 0.44 | O=C(CCCCCCNc1c2c(nc3ccccc13)CCC2)NO [Example 3, 7-[(2,3-dihydro-1H-cyclopenta[b]quinolin-9-yl)amino]-N-hydroxyheptanamide]
0.015 | > 5 | 1.22 | O=C(CCCCCCNc1c2c(nc3ccccc13)CCCCC2)NO [Example 4, N-hydroxy-7-[(7,8,9,10-tetrahydro-6H-cyclohepta[b]quinolin-11-yl)amino]heptanamide]
0.015 | > 5 | 1.04 | COc1cccc2c(NCCCCCCC(=O)NO)c3c(nc12)CCCC3 [Example 5, N-hydroxy-7-[(5-methoxy-1,2,3,4-tetrahydroacridin-9-yl)amino]heptanamide]
0.038 | > 5 | 0.69 | O=C(CCCCCCNc1c2c(nc3ncccc13)CCCC2)NO [Example 7, N-hydroxy-7-[(6,7,8,9-tetrahydrobenzo[b][1,8]naphthyridin-5-yl)amino]heptanamide]
0.033 | > 5 | 0.6 | O=C(CCCCCCNc1c2c(nc3cnccc13)CCCC2)NO [Example 8, N-hydroxy-7-[(6,7,8,9-tetrahydrobenzo[b][1,7]naphthyridin-5-yl)amino]heptanamide]
0.33 | > 5 | > 5 | O=C(CCCCCNC(=O)c1c2c(nc3ccccc13)CCCC2)NO [Example 10, N-[6-(hydroxyamino)-6-oxohexyl]-1,2,3,4-tetrahydroacridine-9-carboxamide]
0.19 | > 5 | 4.1 | O=C(CCCCCCNC(=O)c1c2c(nc3ccccc13)CCCC2)NO [Example 11, N-[7-(hydroxyamino)-7-oxoheptyl]-1,2,3,4-tetrahydroacridine-9-carboxamide]
